Results on 79 molecules are retold here after the METLIN SMRT retention time set (Domingo-Almenara et al. 2019).

This data set is described as follows: gradient 5% acetonitrile 3 min, to 50% in 2 min, to 85% in 15 min, held 3 min, 100 µL/min. Particulars: column: Zorbax Extend-C18 2.1 x 50 mm; eluents: water / acetonitrile, 0.1% formic acid. In a few lines: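 In both positive and negative ionization mode, a quadrupole time-of-flight mass spectrometer coupled to HPLC analyzed pure standards run in mixtures of ~100 molecules. The Zorbax Extend-C18 column (2.1 × 50 mm, 1.8 μm) was operated at 100 μL/min with water and acetonitrile, each containing 0.1% formic acid. The dead volume was 40 μL and the dwell volume 900 μL. Retention time came from adduct peaks that were computationally picked and individually inspected by hand.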
For the molecule `COc1ccc(Cl)c2c(=O)c3c([nH]c12)CCN(CC(=O)Nc1ccccc1)C3`, the RP-LC retention time is 617 s. `CCc1ccccc1-n1c(-c2ccc(Cl)cc2)cn2c3c(=O)n(C)c(=O)n(C)c3nc12` registered an RP-LC retention time of 1110 s. The value for `CCNS(=O)(=O)c1cccnc1Nc1ccc(F)c(Cl)c1` was 1040 s; that for `NC(=O)C1CCN(C(=O)Cc2cc(-c3cccs3)on2)CC1` was 594 s.

Consider `O=C1NCCCCCN(C(=O)c2ccc(Cn3cncn3)o2)[C@H]2CCC[C@@H]12`, for which the RP-LC retention time turned out to be 608 s.

`O=C(NC1CC1)C1CCN(c2nc3ccsc3c(=O)n2Cc2ccccc2)CC1` yielded an RP-LC retention time of 741 s. The molecule `CCn1ccc2cc(S(=O)(=O)N3CCCC(C(=O)NCCCc4ccccc4)C3)ccc21` (centres undefined) gave an RP-LC retention time of 1000 s. `O=C(N[C@@H]1CN(Cc2cc(F)c(F)cc2F)C[C@H]1CO)C1CCC1`: the RP-LC retention time was 599 s. The molecule `Clc1ccc(-c2nnc(-c3nc(NCc4cccnc4)c4ccccc4n3)o2)cc1` showed an RP-LC retention time of 680 s. `CC(C)Oc1ccc(CNS(=O)(=O)c2cc(-c3nc(C(C)C)cs3)cs2)cc1` registered an RP-LC retention time of 1210 s. The value for `CCCc1ccc(S(=O)(=O)N2CCc3c(c(-c4nnc(-c5ccc(F)cc5)o4)nn3C)C2)cc1` was 1070 s; that for `Cc1ccc(Nc2c(-c3cccc(O)c3)nc3ncccn23)cc1C` was 705 s; that for `O=C(CCc1ccccc1)Nc1c(-c2ccc(F)cc2)nc2ccccn12` was 687 s. The value for `COC(=O)c1ccc2c(=O)n(-c3ccc(F)c(Cl)c3)c(N3CCOCC3)nc2c1` was 967 s. The value for `COc1ccc(S(=O)(=O)N2CC[C@H](n3c(=O)n(C)c4cccnc43)C2)cc1` was 794 s; that for `Cc1ccc(CNC(=O)N2c3ccccc3CC2c2nc(C3CC3)no2)cc1` (centres undefined) was 972 s; that for `Cc1ccc(-c2ncccc2CNS(=O)(=O)c2cccc(F)c2)cc1` was 713 s.

The molecule `Cc1nc2cccnc2n1CC1CCCN(C(=O)Nc2ccc3c(c2)OCCO3)C1` (centres undefined) had an RP-LC retention time of 614 s. For the molecule `Cc1noc(C)c1S(=O)(=O)NCC1CCN(C(=O)c2cccn(C)c2=O)CC1`, the RP-LC retention time worked out at 599 s.

`O=c1[nH]c2ccc(NCc3c(F)cccc3Cl)cc2[nH]1`: the RP-LC retention time came to 636 s.

For the molecule `Cc1ccc2nc(NC(=O)Cn3c(=O)n(C(C)C)c4ccc(-c5noc(C)n5)cc43)sc2c1`, the RP-LC retention time was 948 s. For the molecule `Cc1ccc(NC(=O)N(C)CC2CCOCC2)cc1F`, the RP-LC retention time was 748 s. In the case of `Cc1cccc(C(=O)NCC2CCCN(S(=O)(=O)c3cc(C)c(C)cc3C)C2)c1` (centres undefined), the RP-LC retention time is 1060 s. The molecule `CCC(=O)N(C1CCOCC1)C1CCN(S(=O)(=O)c2ccc(Cl)cc2C)CC1` returned an RP-LC retention time of 911 s. For `CC(C)n1c(N2CCCN(C(=O)c3cccnc3)CC2)cc(=O)n(C(C)C)c1=O`, the RP-LC retention time came to 668 s.

In turn, `CCOc1ccc(-c2[nH]ncc2CNS(=O)(=O)c2ccc(NC(C)=O)cc2)cc1` displayed an RP-LC retention time of 702 s.

Take `CCCn1cc(CCNS(=O)(=O)c2c(C)c(C)cc(C)c2C)c2cccnc21`: the RP-LC retention time was determined as 1060 s. With `COc1ccc(Cl)cc1S(=O)(=O)N1CCC(C(N)=O)CC1`, the RP-LC retention time is 660 s.

Consider `COc1ccc2c(c1)C1(CCN(C(=O)c3ccc(C#N)cc3)C1)C(=O)N2` (centres undefined), for which the RP-LC retention time came out at 762 s. Molecule `O=C(Nc1nnc(Cc2ccccc2)s1)C1CC(=O)N(c2n[nH]c3cccc(F)c23)C1` (centres undefined) registered an RP-LC retention time of 745 s. The value for `O=C(Nc1ccc(N2CCOCC2)cc1)C1CCCN(c2nccnc2Oc2ccccc2)C1` (centres undefined) was 852 s; that for `C[C@H]1CN(C(=O)Cc2ccccc2F)C[C@@H]1c1nc(-c2ccccc2)no1` was 1020 s; that for `CCCCC(=O)Nc1ccc(-c2cn3ccc(C)nc3n2)cc1` was 612 s. As for `COc1ccc(OC)c(S(=O)(=O)N2[C@H]3CC[C@@H]2c2cnc(C)nc2C3)c1`, the RP-LC retention time worked out at 703 s. The value for `CN(C)CCNC(=O)c1ccc(-c2ccc(N3CCCCCC3)nc2)cc1` was 560 s. The value for `COC(=O)C1=CN(c2ccc(F)c(F)c2)c2cc(F)ccc2S1(=O)=O` was 860 s; that for `O=C(NCc1ccccc1Cl)c1ccc(NC(=O)C2CCC2)cc1N1CCOCC1` was 873 s; that for `Cc1nc(CSc2ncnc3sc4c(c23)CCC4)cs1` was 1040 s. The value for `Cc1nnc(-c2ccc3ccn(CC(=O)Nc4ccccn4)c3c2)o1` was 670 s; that for `CCCCC(C=O)NC(=O)[C@H](CC(C)C)NC(=O)OCc1ccccc1` (some centres undefined) was 970 s. `NC(=O)C1CCN(C(=O)c2cc(-c3ccccc3Cl)on2)CC1`: the RP-LC retention time is 674 s. Consider `COCCNc1c(-c2ccccc2)nc2sc(C(=O)NC(C)C)c(C)n12`, for which the RP-LC retention time is 749 s. In turn, `CN(C)c1ccc(N2C=C(C(=O)N3CCOCC3)S(=O)(=O)c3ccc(Cl)cc32)cc1` displayed an RP-LC retention time of 875 s.

Consider `CCOC(=O)N1CCN(S(=O)(=O)c2cc(N3C(=O)CCS3(=O)=O)ccc2C)CC1`, for which the RP-LC retention time was determined as 729 s.

With `Cc1ccc(F)cc1NS(=O)(=O)c1cc2n(c1)CCN(C(C)C)C2=O`, the RP-LC retention time was found to be 783 s. Take `CSc1cccc(NC(=O)N2CCCC(C)(C(=O)NCc3ccc(C)cc3)C2)c1` (centres undefined): the RP-LC retention time worked out at 989 s.

The molecule `CCCN(C(=O)Nc1ccccc1[N+](=O)[O-])c1nc(-c2ccccc2)cs1` registered an RP-LC retention time of 1400 s. The value for `Cc1c(Cl)cccc1S(=O)(=O)NC1CCN(c2ccccc2)C1=O` (centres undefined) was 970 s. As for `CN(C)c1cccc(-c2nc(C3CC(=O)N(c4ccccc4)C3)no2)c1` (centres undefined), the RP-LC retention time worked out at 1030 s. Molecule `O=S(=O)(NCCN1CCOC(c2ccccc2)C1)c1ccc2c(c1)CCCC2` (centres undefined) yielded an RP-LC retention time of 632 s.

`CCc1cccc(NC(=O)Cn2ncc3c(c2=O)N(CC2CC2)C(=O)CS3)c1` had an RP-LC retention time of 859 s. Molecule `CSc1ccc(-c2nc3ccc(C)cn3c2Nc2ccc3c(c2)OCCO3)cc1` came in with an RP-LC retention time of 716 s. On to `CCOc1ccc(S(=O)(=O)N2CCC(C(=O)NCCOC)CC2)cc1C`, for which the RP-LC retention time worked out at 783 s. In the case of `O=C(Nc1ccc(Nc2ccccc2)cc1)Nc1ccccc1Cl`, the RP-LC retention time turned out to be 1130 s. The value for `O=C(Cn1c(=O)cc(-c2nc(C3CC3)no2)c2ccccc21)NCc1ccccc1F` was 902 s. `O=C(NCc1ccccn1)C1CC(=O)N(CCc2c[nH]c3ccc(Cl)cc23)C1` (centres undefined): the RP-LC retention time came out at 627 s. The value for `COc1ccc(-c2noc(N3CCC(Cc4ccccc4)CC3)n2)cc1OC` was 1240 s.

As to `Cc1ccc(NC(=O)C2CCN(S(=O)(=O)c3c(C)[nH]c(C)c3C(=O)N3CCCC3)CC2)c(C)c1`, the RP-LC retention time was 729 s. For the molecule `CCCN1C(=O)c2cc(S(=O)(=O)Nc3ccc(F)cc3F)ccc2Oc2cccnc21`, the RP-LC retention time worked out at 1050 s. The value for `O=C(CN1C(=O)CC(c2cccs2)=Nc2ccccc21)Nc1ccc(F)cc1F` was 946 s.

`CCNC(=O)c1nc2cccnc2n(C)c1=O`: the RP-LC retention time was 615 s. The value for `CC(C)Cc1ccc(-c2csc(NC(=O)c3cnccn3)n2)cc1` was 1130 s.

Take `CCSc1ccccc1C(=O)NCC1(c2ccccc2OC)CCOCC1`: the RP-LC retention time was 843 s.

For `CC(C)NC(=O)c1ccc(Nc2c(-c3ccc(Cl)cc3)nc3cnccn23)cc1`, the RP-LC retention time was 764 s. The value for `CCn1nccc1C(=O)N1CCCC1c1cccc(C)c1` (centres undefined) was 849 s. `COCC1(O)CCOC2(CCN(Cc3ccc(F)cc3Cl)CC2)C1` (centres undefined) displayed an RP-LC retention time of 563 s. `Cn1cnc2c(C(=O)NCCC3=CCCCC3)nn(-c3ccc(Cl)cc3)c2c1=O`: the RP-LC retention time came to 959 s. With `Cc1ccc(-c2cc3c4nnc(SCC(=O)NC5CCCCC5)n4ccn3n2)cc1C`, the RP-LC retention time worked out at 978 s.

On to `Cc1cc(C)cc(NC(=O)c2[nH]c(C)c(S(=O)(=O)N3CCCC3)c2C)c1`, for which the RP-LC retention time is 950 s. The value for `O=C(CC1(O)C(=O)Nc2c(Cl)ccc(Cl)c21)c1ccc(Cl)cc1Cl` (centres undefined) was 879 s; that for `COc1ccc(-c2c(C)noc2NC(C)=O)cc1S(=O)(=O)Nc1ccccc1` was 721 s; that for `NC(=O)c1nsc2c(=O)n(CC(=O)NCc3ccco3)cnc12` was 589 s. The value for `COc1ccc(C2(C(=O)N3CCC4(CC3)NCCc3c4[nH]c4ccccc34)CC2)cc1` was 681 s. The value for `O=C(NC1CCCCCCC1)C1CCN(Cc2cc3ccccc3n2Cc2cccc(Cl)c2)CC1` was 930 s.

As for `CNC(=O)Oc1ccc2c(c1)[C@]1(C)CCN(C)C1N2C` (some centres undefined), the RP-LC retention time was found to be 594 s.

The molecule `Cc1ccc(Sc2cncc3sc(C(N)=O)cc23)cc1` returned an RP-LC retention time of 836 s.

`O=C(CCn1c(N2CCCCC2)nc2ccsc2c1=O)N1CCN(c2ccccn2)CC1` came in with an RP-LC retention time of 629 s.

`O=C(Nc1cccc(-c2ccc3nnc(-c4cccs4)n3n2)c1)C1CCCC1` gave an RP-LC retention time of 792 s.

Molecule `O=C(NCCn1nnc2cc(C(=O)N3CCCC3)ccc21)Nc1ccccc1Br` registered an RP-LC retention time of 683 s.
